The results in this text go back to article PMC7827406, “Structure–Activity Relationship (SAR) Study of Spautin-1 to Entail the Discovery of Novel NEK4 Inhibitors” (International Journal of Molecular Sciences, 2021).

Like-named read-outs stand apart in the source and are kept apart here.

Common to all, as to experiment: biochemical
Common to all, as to set-up: Eurofins KinaseProfiler full panel at Km ATP, residual kinase activity (%) relative to DMSO

One test deals with CDK9/cyclin T1(h) (Homo sapiens, UniProt P50750). An outline of the steps: (§1)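 Radiometric kinase activity assays were run with ATP at Km and compounds at 10 µM, and remaining activity (%) was reported. A separate competitive binding screen measured DNA-tagged kinase displaced from immobilized active-site ligands by qPCR, giving percent kinase still bound at 10 µM compound in DMSO.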

The next test deals with T1, CK2(h) (Homo sapiens, UniProt P68400).
T1 construct: gene CSNK2A1
A digest of the protocol:
as §1

Another test deals with T2, DYRK3(h) (Homo sapiens, UniProt O43781).
T2 sequence (O43781 1-588): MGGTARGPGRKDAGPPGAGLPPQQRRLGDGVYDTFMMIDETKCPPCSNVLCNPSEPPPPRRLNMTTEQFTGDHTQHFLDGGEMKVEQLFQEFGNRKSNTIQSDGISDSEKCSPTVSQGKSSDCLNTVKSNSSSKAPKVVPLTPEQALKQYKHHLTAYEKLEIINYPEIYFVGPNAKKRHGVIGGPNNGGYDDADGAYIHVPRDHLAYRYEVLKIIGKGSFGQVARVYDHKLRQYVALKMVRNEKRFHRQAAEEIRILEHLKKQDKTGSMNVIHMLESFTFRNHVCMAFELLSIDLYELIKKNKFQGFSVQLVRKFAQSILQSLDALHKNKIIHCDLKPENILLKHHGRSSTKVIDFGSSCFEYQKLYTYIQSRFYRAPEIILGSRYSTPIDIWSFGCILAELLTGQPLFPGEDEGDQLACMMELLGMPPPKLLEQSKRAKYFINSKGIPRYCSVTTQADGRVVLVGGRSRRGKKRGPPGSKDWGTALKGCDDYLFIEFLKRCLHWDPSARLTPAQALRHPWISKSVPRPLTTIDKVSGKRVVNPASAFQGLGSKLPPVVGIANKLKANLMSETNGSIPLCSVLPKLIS
An outline of the steps:
as §1

The target of a further test is T3, PKD3(h) (Homo sapiens, UniProt O94806).
T3 construct: gene PRKD3
T3 sequence (O94806 1-890): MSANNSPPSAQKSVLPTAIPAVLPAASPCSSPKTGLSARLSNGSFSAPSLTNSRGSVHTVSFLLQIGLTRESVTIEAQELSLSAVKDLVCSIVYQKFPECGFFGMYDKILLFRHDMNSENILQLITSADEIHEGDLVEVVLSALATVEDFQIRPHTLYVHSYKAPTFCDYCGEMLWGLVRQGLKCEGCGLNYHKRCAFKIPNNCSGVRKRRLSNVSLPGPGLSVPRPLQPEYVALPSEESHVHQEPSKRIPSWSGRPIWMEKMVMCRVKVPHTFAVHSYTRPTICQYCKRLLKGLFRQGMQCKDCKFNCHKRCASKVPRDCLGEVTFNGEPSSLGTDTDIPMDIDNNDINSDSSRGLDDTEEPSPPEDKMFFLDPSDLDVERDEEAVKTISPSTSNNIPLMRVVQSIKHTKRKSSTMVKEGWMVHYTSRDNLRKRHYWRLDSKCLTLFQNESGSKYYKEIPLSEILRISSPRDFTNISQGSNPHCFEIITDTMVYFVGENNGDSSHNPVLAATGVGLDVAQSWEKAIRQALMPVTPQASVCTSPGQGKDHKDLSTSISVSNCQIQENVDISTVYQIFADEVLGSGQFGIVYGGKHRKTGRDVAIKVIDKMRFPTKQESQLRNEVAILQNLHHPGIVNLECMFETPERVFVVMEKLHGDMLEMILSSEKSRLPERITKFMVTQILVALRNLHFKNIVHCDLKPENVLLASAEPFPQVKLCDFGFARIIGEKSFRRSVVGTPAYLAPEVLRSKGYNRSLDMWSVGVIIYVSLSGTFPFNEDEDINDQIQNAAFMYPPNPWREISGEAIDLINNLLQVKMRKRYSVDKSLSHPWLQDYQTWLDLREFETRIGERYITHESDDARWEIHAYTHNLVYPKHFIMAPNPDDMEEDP
A digest of the protocol: as §1

The target in the next test is T4, TrkA(h) (Homo sapiens, UniProt P04629).
T4 construct: gene NTRK1
A digest of the protocol: as §1

Setting [1] is: read-out: Residual activity (%) Spautin-1 5aa.
[2] abbreviates: read-out: Residual activity (%) 5as.
The mark [3] stands for this setting: read-out: Residual activity (%) 5at.
The mark [4] stands for this setting: read-out: Residual activity (%) 5ay.

T4 sequence (P04629 whole entry): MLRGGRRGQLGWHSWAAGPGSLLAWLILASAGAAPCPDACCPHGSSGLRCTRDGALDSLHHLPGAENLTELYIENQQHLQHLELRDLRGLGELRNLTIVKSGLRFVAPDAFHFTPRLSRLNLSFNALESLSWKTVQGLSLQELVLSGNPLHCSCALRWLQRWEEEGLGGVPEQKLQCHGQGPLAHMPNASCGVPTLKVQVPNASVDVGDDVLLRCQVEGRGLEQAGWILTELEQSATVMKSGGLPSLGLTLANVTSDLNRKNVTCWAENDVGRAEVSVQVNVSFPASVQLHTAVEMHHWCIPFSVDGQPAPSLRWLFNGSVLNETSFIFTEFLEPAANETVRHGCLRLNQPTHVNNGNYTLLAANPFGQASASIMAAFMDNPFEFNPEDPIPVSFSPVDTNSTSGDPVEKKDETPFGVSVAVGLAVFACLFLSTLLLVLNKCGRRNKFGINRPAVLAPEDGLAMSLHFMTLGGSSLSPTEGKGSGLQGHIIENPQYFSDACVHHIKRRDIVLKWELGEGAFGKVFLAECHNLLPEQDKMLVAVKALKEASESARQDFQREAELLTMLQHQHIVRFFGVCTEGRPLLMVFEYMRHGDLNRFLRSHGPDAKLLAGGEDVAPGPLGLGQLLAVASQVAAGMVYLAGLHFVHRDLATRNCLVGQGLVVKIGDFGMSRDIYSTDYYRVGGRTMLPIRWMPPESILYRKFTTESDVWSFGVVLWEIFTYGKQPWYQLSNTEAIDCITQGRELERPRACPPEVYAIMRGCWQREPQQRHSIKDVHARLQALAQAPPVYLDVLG
T1 sequence (P68400 whole entry): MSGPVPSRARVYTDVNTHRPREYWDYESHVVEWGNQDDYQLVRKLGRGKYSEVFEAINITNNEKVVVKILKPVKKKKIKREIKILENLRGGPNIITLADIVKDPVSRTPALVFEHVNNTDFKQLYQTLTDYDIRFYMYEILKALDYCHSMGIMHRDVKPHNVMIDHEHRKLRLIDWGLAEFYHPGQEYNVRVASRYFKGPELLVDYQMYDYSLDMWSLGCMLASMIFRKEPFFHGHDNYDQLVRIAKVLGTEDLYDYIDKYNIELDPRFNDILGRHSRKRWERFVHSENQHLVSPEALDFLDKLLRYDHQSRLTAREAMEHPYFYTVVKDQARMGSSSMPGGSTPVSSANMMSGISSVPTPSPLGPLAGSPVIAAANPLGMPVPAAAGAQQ
T1 sequence (P67870 whole entry partner): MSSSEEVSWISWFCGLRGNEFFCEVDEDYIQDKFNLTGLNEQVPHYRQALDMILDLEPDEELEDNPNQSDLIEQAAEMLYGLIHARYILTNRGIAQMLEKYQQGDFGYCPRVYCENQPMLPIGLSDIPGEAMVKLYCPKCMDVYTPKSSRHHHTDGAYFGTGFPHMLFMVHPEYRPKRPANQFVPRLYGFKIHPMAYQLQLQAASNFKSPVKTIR
Chain of CDK9/cyclin T1(h) (P50750 whole entry): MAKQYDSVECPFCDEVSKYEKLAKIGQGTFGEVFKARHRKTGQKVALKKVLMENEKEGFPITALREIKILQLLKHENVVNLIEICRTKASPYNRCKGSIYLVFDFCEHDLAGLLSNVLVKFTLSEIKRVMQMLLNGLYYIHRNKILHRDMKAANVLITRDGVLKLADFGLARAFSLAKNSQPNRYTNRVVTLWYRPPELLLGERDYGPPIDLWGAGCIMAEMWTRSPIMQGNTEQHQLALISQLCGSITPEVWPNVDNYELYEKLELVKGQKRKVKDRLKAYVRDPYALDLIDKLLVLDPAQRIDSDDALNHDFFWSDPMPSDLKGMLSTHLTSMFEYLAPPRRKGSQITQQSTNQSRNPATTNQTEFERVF
Chain of CDK9/cyclin T1(h) (O60563 whole entry partner): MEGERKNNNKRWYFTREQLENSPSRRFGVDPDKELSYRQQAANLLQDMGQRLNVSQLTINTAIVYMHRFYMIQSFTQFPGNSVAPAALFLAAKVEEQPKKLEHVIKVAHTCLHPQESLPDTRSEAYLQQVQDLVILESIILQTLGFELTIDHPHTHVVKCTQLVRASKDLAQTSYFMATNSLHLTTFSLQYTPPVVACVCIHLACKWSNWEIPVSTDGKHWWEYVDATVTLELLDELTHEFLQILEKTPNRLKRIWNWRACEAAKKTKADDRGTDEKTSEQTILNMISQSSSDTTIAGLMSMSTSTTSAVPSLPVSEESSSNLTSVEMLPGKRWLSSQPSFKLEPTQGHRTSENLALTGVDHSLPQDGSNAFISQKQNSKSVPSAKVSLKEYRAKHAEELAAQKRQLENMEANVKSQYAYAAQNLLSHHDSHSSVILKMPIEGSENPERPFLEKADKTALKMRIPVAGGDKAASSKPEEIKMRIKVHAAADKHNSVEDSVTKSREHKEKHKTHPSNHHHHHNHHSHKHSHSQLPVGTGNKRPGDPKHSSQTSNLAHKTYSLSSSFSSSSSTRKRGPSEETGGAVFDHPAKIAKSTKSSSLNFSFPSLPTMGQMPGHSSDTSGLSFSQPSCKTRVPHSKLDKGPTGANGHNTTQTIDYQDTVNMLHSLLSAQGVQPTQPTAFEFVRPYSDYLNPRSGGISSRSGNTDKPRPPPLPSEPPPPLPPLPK

For the molecule `Fc1ccc(CNc2ncnc3ccc(F)cc23)cc1` [5aa, 6-Fluoro-N-(4-fluorobenzyl)-4-Quinazolinamine], the remaining activity at 10 µM on CDK9/cyclin T1(h) (setting [1]) was 104%; on CK2(h) (setting [1]), 83%; on DYRK3(h) (setting [1]) it was 117%; at PKD3(h) (setting [1]), 100%; at TrkA(h) (setting [1]), 65%.
In the case of `Fc1ccc(CCNc2ncnc3ccc(F)cc23)cc1` [5as, 6-Fluoro-N-[2-(4-Fluorophenyl)Ethyl]-4-Quinazolinamine], the remaining activity at 10 µM at CDK9/cyclin T1(h) (setting [2]) turned out to be 93%; at CK2(h) (setting [2]), 78%; at DYRK3(h) (setting [2]), 98%; at PKD3(h) (setting [2]) it was 114%; on TrkA(h) (setting [2]) it was 87%.
Take `Fc1ccc2ncnc(NCCc3ccc(Cl)cc3)c2c1` [5at, N-[2-(4-Chlorophenyl)Ethyl]-6-Fluoro-4-Quinazolinamine]: the remaining activity at 10 µM came out at 86% on CDK9/cyclin T1(h) (setting [3]); 87% on CK2(h) (setting [3]); 98% at DYRK3(h) (setting [3]); 102% on PKD3(h) (setting [3]); 60% at TrkA(h) (setting [3]).
For `COc1ccc2ncnc(Nc3cccc(F)c3)c2c1` [5ay, N-(3-Fluorophenyl)-6-Methoxy-4-Quinazolinamine], the remaining activity at 10 µM on CDK9/cyclin T1(h) (setting [4]) worked out at 100%; on CK2(h) (setting [4]), 75%; on DYRK3(h) (setting [4]) it was 57%; at PKD3(h) (setting [4]) it was 91%; on TrkA(h) (setting [4]) it was 70%.
